# Entries after “also recorded” stand apart in the source; their conditions may differ.
# Columns and labels:
# [1] = displacement of a pre-adsorbed FL-BP from CaP-coated culture wells by a different FL-BP; type: binding; conditions: FIG. 1 Panel A
# Experimental: FIG. 1, Panels A-C, illustrates displacement of an adsorbed fluorescently labeled BP (FL-BP) from a hydroxyapatite surface mimicking bone by a different fluorescently labeled BP. Synthetic bone/dentine (calcium phosphate, CaP)-coated culture wells were pre-treated with either ROX-RIS or 5-FAM-RIS (50 μM) After challenged by serially diluted doses of 5-FAM-RIS or ROX-RIS (from 0 to 50 μM), respectively, Carboxyl-X-Rhodamine (ROX) and carboxyfluorescein (FAM) fluorescence intensities of the CaP-coated wells were measured. Panel A: ROX-RIS in CaP (first bars of each set) remained near the pre-adsorbed 50 μM level until 5 μM or greater concentrations of 5-FAM-RIS challenged. In contrast, 5-FAM-RIS (second bars of each set) was rapidly displaced by concentrations of ROX-RIS as low as 1 μM. Panel B: Pre-adsorbed FAM-RIS was replaced by ROX-RIS between 10 μM to 50 μM. Panel C: The quantitative measurement of FAM and ROX fluorescent signals was conducted by standardized fluorescent biophotonics and a proprietary program (LAS3000, FUJIFILM, Tokyo, Japan).
# Rap1A prenylation = test: Western blot of Rap1A prenylation in J774 macrophages; type: cell-based, mouse; conditions: 10 μM and 100 μM dose
# [2] = tested on: ZOL-induced mouse BRONJ model; test: ZOL-induced mouse BRONJ/ONJ model (ZOL IV injection followed by maxillary first molar extraction); type: in vivo; conditions: for development of ONJ-like lesions at the tooth extraction sites: ZOL 500 μg/kg IV, intra-oral injection one day prior to extraction, 14 days after extraction, FIG. 21; for histology of maxilla at the tooth extraction site: ONJ-like lesion: 2 weeks after extraction, one time oral injection in ZOL-mice, FIG. 20; for development of ONJ-like lesions: FIG. 19C; for ZOL-injected mice with open oral wound: 500 μg/Kg ZOL via tail vein
# Experimental: AF647-ZOL was applied by intra-oral injection or IV injection 1 day prior to tooth extraction. FIG. 16B are images of mouse maxilla and the oral mucosa inflammation and swelling (white dotted lines, left and right panels) with various degrees of jawbone exposure (arrow) at the tooth extraction site of ZOL-treated mice (BRONJ control: n−4). […]
# Panel A is a diagram of the experimental time line. Mice treated by IV injection of ZOL (500 μg/kg) received an intra-oral injection of AF647-ZOL, MHDP or ETI (etidronate) one day prior to maxillary 1″ molar extraction. The development of ONJ was evaluated 14 days after tooth extraction.
# The C57BL/6J (B6) mice model of ONJ is used. The consistent tissue source in this study is mouse maxillary bone with or without tooth extraction, as well as femurs, mandibles and L4/L5 lumber bones. Tooth extraction animal models for studying wound healing in mice have been well established in our and other laboratories. Systemic bisphosphonate treatment is accomplished by IV injection and the proposed local application of FL-BP is accomplished by intraoral injection to gingival/palatal tissue of mouse maxilla. Mice are subjected to maxillary molar extraction. After anesthesia and vital signs checked, the animal is placed on a bed supporting the isoflurane tubing while keeping the mouth opening. Ophthalmic ointment (bland, e.g., Lacrilube) is applied. The maxillary molar area is wiped with 0.12% Chlorhexidine gluconate solution (Peridex, oral rinse). An autoclaved dental explorer is used as an exodontia elevator after careful reflection of the cervical mucosa to minimize post-extraction discomfort. An autoclaved cotton swab is placed on the extraction socket until the initial blood coagulation is established. Maxillary 1st molar is then extracted unilaterally from so that the remaining untreated side can be utilized for chewing. In our previous experiments, the entire procedure takes about 5-15 minutes. […]
# In a preliminary study female B6 mice were injected 500 μg/Kg ZOL (equivalent to 200 μl of 350 μM ZOL) via tail vein and one week later, maxillary left first molar was extracted. […]
# Therefore, as schematically shown in FIG. 19B mouse maxillae were treated with ZOL and then either 2 μg of MHDP was orally injected to the site of the molar to be extracted or 100 μg of MHDP was IV injected and the sites of molar extraction of treated mouse maxilla were compared to controls.
# [3] = tested on: mouse femur trabecular bone; test: micro CT evaluation of mouse femur trabecular structure (anti-resorptive function in vivo); conditions: for anti-resorptive effect: vs saline (0.9% NaCl) vehicle
# Experimental: FIG. 19A to FIG. 19C present evidence that certain alkylidene bisphosphonates can be used to displace active BPs in vivo in the mouse model. […] FIG. 19B outlines the protocol for the experiments using MHDP to treat C57B16 mice. An ONJ-like lesion was generated by ZOL IV injection into the mouse, followed by extraction of the maxillary first molar. One day prior to the tooth extraction, a group of mice received intra-oral injection of 2 μg MHDP and another group received IV injection of 100 μg MHDP. FIG. 19C presents images of the mouse maxilla.
# This study determines the anti-resorptive function of FL-BP in vivo, as compared to ZOL. Female B6 mice were injected with 50 μM ZOL (n=6), 50 μM FL-BP (n=6) or 0.9% NaCl vehicle solution (control: n=6) via tail vein. Three weeks later, mice were euthanized and femur and L4/L5 were harvested. After fixed in 10% buffered formalin, bone samples were subjected to micro CT analysis. The anti-resorptive function were quantitatively established by the trabecular bone three-dimensional morphometry (e.g., BV/TV, Tb.N, Tb.Th, TbSp). FL-BPs with minimal or no pharmacological BP function are used.
# Mice were IV injected with 0.9% NaCl (vehicle solution), ZOL (184 μM×100 μL=5.0 μg/animal) or AF647-ZOL (184 μM×100 μL=22.0 μg/animal) and femurs were harvested 2 weeks after injection. The micro CT data were compared.
# [4] = hydroxyapatite (HAP) binding affinity, relative retention times normalized to RIS; conditions: FIG. 7
# Experimental: FIG. 7 is a bar graph showing hydroxyapatite (HAP) binding affinity of Zoledronate (ZOL), ROX-RIS, 5-FAM-ZOL, and AF647-ZOL. Relative retention times were normalized to RIS.
# Hydroxyapatite assays indicate that the FL-BPs generally retain substantial affinity for bone mineral that reflect the affinity of the BP component and to a lesser extent, the affinity of the conjugated fluorophore. Hydroxyapatite (Macro-Prep® Ceramic hydroxyapatite Type II […]) was obtained from Bio-Rad Laboratories, Inc. Hercules, Calif. Accurately weighed hydroxyapatite powder (1.4-1.6 mg) was suspended in a 4 mL clear vial containing the appropriate volume of assay buffer (0.05% (wt/vol) Tween20, 10 μM EDTA and 100 mM HEPES pH=7.4) for 3 hours. Hydroxyapatite was then incubated with increasing amounts of FAM-BP and ROX-BP (0, 25, 50, 100, 200, and 300 μM). Samples were gently shaken for 3 hours at 37° C. in appropriate volume of assay buffer (0.05% (wt/vol) Tween20, 10 μM EDTA and 100 mM HEPES pH=7.4). Subsequent to the equilibrium period, the vials were centrifuged at 10,000 rpm for 5 minutes to separate the solids and the supernatant. 0.3 mL of the supernatant was collected and the equilibrium solution concentration is measured by using Shimadzu UV-VIS spectrometer. For the calibration series, FL-BP probe standards were prepared by serial dilution from the stock solution with the same isotherm buffer to give the range from 0 to 400 μM. Calibration curves were constructed using standard solutions of the target FL-BPs. Fluorescent emission can also be used to calculate the binding parameters. Nonspecific binding was measured with a similar procedure in the absence of hydroxyapatite as control. Binding parameters (Kd and Bmax, represent the equilibrium dissociate constant and maximum number of binding sites, respectively) were calculated using the PRISM program (Graphpad, USA). The binding parameters of each compound was measured in 5 independent experiments. […]
# mouse maxilla = test: preliminary study: fluorescent imaging of mouse maxilla after 5-FAM-ZOL IV or ROX-RIS intraoral injection; type: in vivo; conditions: single intraoral 25 μl of 50 μM; 2 days after
# Experimental: In a preliminary study female C57B16/J (B6) mice (8 weeks old) received either a single IV injection via tail vein of 200 μl of 350 μM 5-FAM-ZOL (5-FAM-ZOL, #BV111001, BioVinc LLC, Culver City, Calif.) or a single intraoral injection of 25 μl of 50 μM ROX-RIS (5(6)-ROX-RIS, #BV150101, BioVinc LLC, CA) to gingival/palatal tissue at maxillary left first molar (white arrow in FIG. 11). […], mice were euthanized 3 weeks after the IV injection of 5-FAM-ZOL or 2 days after the intraoral injection of ROX-RIS. Skulls (containing maxilla) were harvested and standardized fluorescent biophotonics image was obtained using an excitation wavelength of 460 nm and the 515 nm filter (LAS3000, FUJIFILM Corp).
# [5] = IV 184 μM×100 μL, femurs 2 weeks after injection
compound,measurement,setting,value
O=C(NCC(O)C[n+]1cccc(CC(O)(P(=O)(O)O)P(=O)(O)O)c1)c1ccc(-c2c3ccc(=O)cc-3oc3cc(O)ccc23)c(C(=O)O)c1 (centres unmarked) [5-FAM-RIS],concentration of challenging 5-FAM-RIS up to which pre-adsorbed ROX-RIS remained near the pre-adsorbed level,[1]; CaP wells pre-treated with 50 μM ROX-RIS,≥ 5 µM
"CC(O)(P(=O)(O)O)P(=O)(O)O [ETI, ethylene hydroxyl bisphosphonate, reference compound]",inhibition of Rap1A prenylation (accumulated unprenylated Rap1A),Rap1A prenylation,not
same,development of ONJ-like lesions at the tooth extraction sites,[2],appeared to be prevented
"O=P(O)(O)C(O)P(=O)(O)O [MHDP, methylene hydroxyl bisphosphonate]",inhibition of Rap1A prenylation (accumulated unprenylated Rap1A),Rap1A prenylation,not
same,anti-resorptive effect,[3]; FIG. 19A,lack of anti-resorptive activity; also recorded: lack of anti-resorptive effect
same,histology of maxilla at the tooth extraction site: ONJ-like lesion,[2],did not develop an ONJ-like lesion
same,development of ONJ-like lesions,[2]; IV injection of 100 μg one day prior to extraction,prevented the development of ONJ-like lesions
same,development of ONJ-like lesions at the tooth extraction sites,[2],appeared to be prevented
same,development of ONJ-like lesions,[2]; intra-oral injection of 2 μg one day prior to extraction,prevented the development of ONJ-like lesions
O=C(NCC(O)C[n+]1cccc(CC(O)(P(=O)(O)O)P(=O)(O)O)c1)c1ccc(C2=c3cc4c5c(c3Oc3c2cc2c6c3CCCN6CCC2)CCC[N+]=5CCC4)c(C(=O)O)c1 (centres unmarked) [ROX-RIS],concentration of challenging ROX-RIS that displaced pre-adsorbed 5-FAM-RIS,[1]; CaP wells pre-treated with 50 μM 5-FAM-RIS,≥ 1 µM
same,influence of the fluorophore on hydroxyapatite affinity,[4],enhancement
same,fluorescent signal in palatal bone around the injection site,mouse maxilla,localized red fluorescent signal
"O=P(O)(O)C(O)(Cn1ccnc1)P(=O)(O)O [ZOL, zoledronate]",inhibition of Rap1A prenylation (accumulated unprenylated Rap1A),Rap1A prenylation,inhibited Rap1A prenylation
same,bone volume over tissue volume (BV/TV),"[3]; FIG. 19A, trabecular bone",increased
same,connectivity density (ConnD),"[3]; FIG. 19A, trabecular bone",decreased
same,anti-resorptive effect,[3]; FIG. 19A,significant anti-resorptive effect
same,connectivity density,[3]; [5],nearly doubled
same,volume of femur trabecular bone (BV/TV),[3]; [5],nearly doubled
same,bone structural parameters,"[3]; IV 184 μM×100 μL, femurs 2 weeks after injection, FIG. 14",significantly increased
same,ZOL-injected mice with open oral wound,[2]; 2 weeks of tooth extraction,100%
same,ZOL-injected mice with open oral wound,[2]; 4 weeks of tooth extraction,50%
same,histology of maxilla at the tooth extraction site: ONJ-like lesion,[2],development of an ONJ-like lesion
same,tooth extraction wound healing in ZOL-injected mice,"[2]; ZOL IV, then maxillary first molar extraction",delayed wound healing with gingival swelling and jawbone exposure

# Source: US11400104B2, “Skeletal removal of bisphosphonates” (The Regents of the University of California, priority 2016, dated 2022)
